Laboratory results reported in patent publication US6916815B2, “C-6 modified indazolylpyrrolotriazines” (Bristol-Myers Squibb Company, priority 2002, dated 2005).
Where a name gives a salt, the structure may show the parent alone.

In the case of `CCc1c(NC(=O)OC[C@@H]2COCCN2)cn2ncnc(Nc3ccc4c(cnn4Cc4ccccc4)c3)c12` (as salt: hydrochloride) [Example 1, [5-ethyl-4-[[(1-phenylmethyl)-1H-indazol-5-yl]amino]pyrrolo[2,1-f][1,2,4]triazin-6-yl]-carbamic acid, (3S)-3-morpholinylmethyl ester], the melting point is reported as > 300 °C.
